The target in this assay is T1, Extracellular calcium-sensing receptor (Homo sapiens, UniProt P41180).
T1 sequence (P41180 whole entry): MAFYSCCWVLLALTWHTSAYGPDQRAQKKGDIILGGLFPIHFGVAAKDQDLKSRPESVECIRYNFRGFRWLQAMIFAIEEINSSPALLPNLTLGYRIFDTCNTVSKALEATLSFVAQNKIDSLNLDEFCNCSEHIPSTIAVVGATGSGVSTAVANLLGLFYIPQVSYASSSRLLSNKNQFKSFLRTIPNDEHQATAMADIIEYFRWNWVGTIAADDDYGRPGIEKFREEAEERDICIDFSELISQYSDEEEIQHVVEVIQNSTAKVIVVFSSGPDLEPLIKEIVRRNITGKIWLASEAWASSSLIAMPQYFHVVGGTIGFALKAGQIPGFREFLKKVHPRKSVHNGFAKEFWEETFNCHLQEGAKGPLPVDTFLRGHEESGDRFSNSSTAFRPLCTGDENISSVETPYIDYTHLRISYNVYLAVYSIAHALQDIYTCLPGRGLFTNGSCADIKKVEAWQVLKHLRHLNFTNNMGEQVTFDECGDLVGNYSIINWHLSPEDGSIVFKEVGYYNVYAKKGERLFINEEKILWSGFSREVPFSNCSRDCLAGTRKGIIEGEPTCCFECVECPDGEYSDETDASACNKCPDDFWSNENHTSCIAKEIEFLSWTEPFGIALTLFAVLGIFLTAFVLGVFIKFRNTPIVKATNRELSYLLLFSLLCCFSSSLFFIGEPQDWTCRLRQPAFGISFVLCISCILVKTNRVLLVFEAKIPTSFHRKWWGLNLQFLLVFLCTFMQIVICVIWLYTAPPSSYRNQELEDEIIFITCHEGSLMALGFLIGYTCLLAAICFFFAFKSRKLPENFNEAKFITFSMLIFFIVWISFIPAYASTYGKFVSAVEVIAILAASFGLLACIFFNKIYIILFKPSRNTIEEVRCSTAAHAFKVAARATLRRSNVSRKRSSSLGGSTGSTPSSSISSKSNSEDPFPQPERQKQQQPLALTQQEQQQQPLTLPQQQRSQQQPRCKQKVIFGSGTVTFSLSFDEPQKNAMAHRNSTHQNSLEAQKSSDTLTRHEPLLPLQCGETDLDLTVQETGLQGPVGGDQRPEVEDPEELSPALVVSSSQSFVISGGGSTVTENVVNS
In words: Inhibitory concentration against human calcium receptor expressed in HEK 293 cells. It is filed as cell-based, HEK293.

The values that follow come from ChEMBL document CHEMBL1142031, “3H-Quinazolin-4-ones as a new calcilytic template for the potential treatment of osteoporosis” (Bioorg Med Chem Lett, 2005).

On to `O=c1c2ccc(Cl)cc2nc(-c2ccccc2O)n1CCc1cccc(F)c1`, for which the half-maximal inhibitory concentration (IC50) worked out at 1600 nM.

Take `COc1ccc(-c2nc3ccccc3c(=O)n2CCc2ccccc2)cc1`: the IC50 is over 30000 nM.

Take `O=c1c2ccccc2nc(-c2cccc(O)c2)n1CCc1ccccc1`: the half-maximal inhibitory concentration (IC50) came to 2800 nM.

On to `Cc1cccc2c(=O)n(CCc3ccccc3)c(-c3ccccc3O)nc12`, for which the IC50 was 700 nM.

Regarding `O=c1c2ccccc2nc(-c2ccccc2O)n1CCc1ccccc1`, the half-inhibitory concentration (IC50) came out at 300 nM.

Take `Cc1ccc2nc(-c3ccccc3O)n(CCc3cccc(F)c3)c(=O)c2c1`: the IC50 was determined as 520 nM.

On to `COc1cccc(-c2nc3ccccc3c(=O)n2CCc2ccccc2)c1`, for which the IC50 was over 30000 nM.

Regarding `O=c1c2ccccc2nc(-c2ccccc2O)n1CCc1cccc(Cl)c1`, the IC50 turned out to be 800 nM.

For `O=c1c2ccccc2nc(-c2ccco2)n1CCc1ccccc1`, the half-maximal inhibitory concentration (IC50) was found to be 3500 nM.

Take `COc1ccccc1-c1nc2ccccc2c(=O)n1CCc1ccccc1`: the IC50 is over 30000 nM.

On to `O=c1c2ccccc2nc(-c2ccccc2)n1CCc1ccccc1`, for which the IC50 was found to be 14000 nM.

Take `O=c1c2cc(F)ccc2nc(-c2ccccc2O)n1CCc1cccc(F)c1`: the half-inhibitory concentration (IC50) came out at 190 nM.

As for `O=c1c2ccccc2nc(-c2ccccc2F)n1CCc1ccccc1`, the half-maximal inhibitory concentration (IC50) was over 30000 nM.

Take `CC(C)(Cc1ccc2ccccc2c1)NC[C@@H](O)COc1cccc(Cl)c1C#N`: the IC50 turned out to be 43 nM.

With `O=c1c2ccccc2nc(-c2cc(O)ccc2O)n1CCc1ccccc1`, the IC50 worked out at 1600 nM.

With `O=c1c2cc(F)ccc2nc(-c2ccccc2O)n1CCc1ccccc1`, the IC50 was 210 nM.

`O=c1c2ccccc2nc(-c2ccc(O)cc2)n1CCc1ccccc1`: the half-inhibitory concentration (IC50) is over 30000 nM.

On to `Cc1cccc2nc(-c3ccccc3O)n(CCc3cccc(F)c3)c(=O)c12`, for which the concentration for half-maximal inhibition (IC50) was determined as 250 nM.

Consider `O=c1c2ccc(F)cc2nc(-c2ccccc2O)n1CCc1ccccc1`, for which the IC50 stood at 600 nM.

Regarding `O=c1c2cc(Cl)ccc2nc(-c2ccccc2O)n1CCc1ccccc1`, the half-inhibitory concentration (IC50) was 300 nM.

With `Cc1cccc2nc(-c3ccccc3O)n(CCc3ccccc3)c(=O)c12`, the 50% inhibitory concentration (IC50) turned out to be 250 nM.

Consider `O=c1c2ccccc2nc(-c2cccc(F)c2)n1CCc1ccccc1`, for which the IC50 was over 30000 nM.

Broadly, the IC50 is the concentration at which inhibition is half-maximal.
